# ChEMBL document CHEMBL1156211, “Amide-based inhibitors of p38alpha MAP kinase. Part 1: discovery of novel N-pyridyl amide lead molecules” (Bioorg Med Chem Lett, 2010)
# Target: T1, Mitogen-activated protein kinase 14 (Homo sapiens, UniProt Q16539)
# Test: Inhibition of p38alpha assessed as inhibition of gamma-32p-ATP incorporation into biotin peptide substrate after 60 mins by scintillation counter
# T1 sequence (Q16539 whole entry): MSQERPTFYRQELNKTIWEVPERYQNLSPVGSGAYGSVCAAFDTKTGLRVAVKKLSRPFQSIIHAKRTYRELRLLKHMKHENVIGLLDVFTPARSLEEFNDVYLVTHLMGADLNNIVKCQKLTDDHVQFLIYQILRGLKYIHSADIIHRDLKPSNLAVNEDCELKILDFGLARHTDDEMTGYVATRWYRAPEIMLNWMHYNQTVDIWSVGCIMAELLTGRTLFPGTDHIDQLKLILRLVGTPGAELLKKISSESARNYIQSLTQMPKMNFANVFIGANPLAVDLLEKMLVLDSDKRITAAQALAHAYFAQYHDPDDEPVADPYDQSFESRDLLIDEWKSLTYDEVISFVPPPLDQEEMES
row,Compound,IC50
1,C[C@H](Nc1cc(N(Cc2ccc(F)cc2)C(=O)N2CCC3C=CC=CC3C2)ccn1)c1ccccc1 (stereo not given in full),1.11 µM
2,O=C(c1ccc2ccccc2c1)N(Cc1ccc(F)cc1)c1ccncc1,1.26 µM
3,C[C@H](Nc1cc(N(Cc2ccc(F)cc2)C(=O)c2ccc3ccccc3c2)ccn1)c1ccccc1,0.345 µM
4,CC(C)Nc1cc(N(Cc2ccc(F)cc2)C(=O)c2ccc3ccccc3c2)ccn1,0.671 µM
5,O=C(c1ccc2ccccc2c1)N(Cc1ccc(F)cc1)c1ccnc(NCc2ccccc2)c1,1.22 µM
6,Nc1cc(N(Cc2ccc(F)cc2)C(=O)c2ccc3ccccc3c2)ccn1,5.08 µM
7,CC(=O)N(Cc1ccc(F)cc1)c1ccnc(N[C@@H](C)c2ccccc2)c1,0.408 µM
8,CCN(C(=O)c1ccc2ccccc2c1)c1ccnc(N[C@@H](C)c2ccccc2)c1,0.313 µM
9,O=C(c1ccc2ccccc2c1)N(Cc1ccc(F)cc1)c1ccnc(NC2CCCCC2)c1,1.11 µM
10,C[C@H](Nc1cc(N(Cc2ccc(F)cc2)S(=O)(=O)c2ccc3ccccc3c2)ccn1)c1ccccc1,7.54 µM
11,C[C@H](Nc1cc(N(Cc2ccc(F)cc2)C(=O)c2ccccc2)ccn1)c1ccccc1,0.589 µM
12,C[C@@H](Nc1cc(N(Cc2ccc(F)cc2)C(=O)c2ccc3ccccc3c2)ccn1)c1ccccc1,7.8 µM

# Target: T1, Mitogen-activated protein kinase 14
# Test: Inhibition of p38alpha assessed as inhibition of gamma-32p-ATP incorporation into biotin peptide substrate at 1 uM after 60 mins by scintillation counter
row,Compound,inhibition
1,C[C@H](Nc1cc(CN(C(=O)c2ccc3ccccc3c2)c2ccc(F)cc2)ccn1)c1ccccc1,0%
2,O=C(c1ccc2ccccc2c1)N(Cc1ccncc1)c1ccc(F)cc1,0%
3,C[C@H](Nc1cc(NCc2ccc(F)cc2)ccn1)c1ccccc1,0%
